These are literature values, as cited in publication PMC7180638, “Synthesis of Pyrrolidine Monocyclic Analogues of Pochonicine and Its Stereoisomers: Pursuit of Simplified Structures and Potent β-N-Acetylhexosaminidase Inhibition” (Molecules, 2020).

What is called IC50 is the concentration that inhibits the measured activity by half.

Each structure is given as a SMILES string. Like-named read-outs stand apart in the source and are kept apart here.

The target of series [1] is β-N-Acetylhexosaminidase (Bovine liver). The settings on record: ref [2]; cited from earlier work.
Series [2] addresses β-N-Acetylhexosaminidase (HL60). The note with it: ref [2]; cited from earlier work.
For series [3], the target named is β-N-Acetylhexosaminidase (Jack bean). The note with it: ref [2]; cited from earlier work.
Series [4] concerns the target β-N-Acetylgalactosaminidase (HL60). The settings on record: ref [2]; cited from earlier work.
Series [5] addresses T1, α-N-Acetylgalactosaminidase (Chicken liver) (Gallus gallus, UniProt Q90744).
T1 construct: purchased Sigma-Aldrich Chemical Co; host or cells: chicken liver
T1 sequence (Q90744 1-405): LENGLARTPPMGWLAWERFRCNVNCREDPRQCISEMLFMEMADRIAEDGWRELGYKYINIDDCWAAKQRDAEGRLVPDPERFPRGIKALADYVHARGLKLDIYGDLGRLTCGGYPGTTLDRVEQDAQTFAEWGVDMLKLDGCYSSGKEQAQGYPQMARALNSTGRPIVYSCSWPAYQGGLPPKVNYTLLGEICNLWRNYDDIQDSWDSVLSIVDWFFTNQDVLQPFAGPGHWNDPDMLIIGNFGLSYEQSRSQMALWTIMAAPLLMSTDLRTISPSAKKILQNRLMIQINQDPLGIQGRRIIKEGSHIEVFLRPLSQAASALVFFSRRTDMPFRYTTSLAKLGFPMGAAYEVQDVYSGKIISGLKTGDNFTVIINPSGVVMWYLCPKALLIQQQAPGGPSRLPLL
The note with it: ref [2], cited from earlier work.

The target in series [6] is β-N Acetylhexosaminidase (A. oryzae). The settings on record: ref [2]; cited from earlier work.
The target in series [7] is β-N Acetylhexosaminidase (Human placenta). The note with it: ref [2]; cited from earlier work.

Turning to `CC(=O)NC[C@H]1[C@H](O)[C@H](O)[C@@H]2[C@H](O)C[C@@H](CO)N21` [Pochonicine (1), pochonicine], the IC50 is 21 nM in series [1]; 18 nM in series [2]; 1.6 nM in series [3]; 49 nM in series [4]; “did not exhibit any inhibition” in series [5] (listed as pochonicine (1)); “NI (No Inhibition (less than 50% at 1000 μM))” in series [5]. The IC50 in series [6] was 330 nM; in series [7], 12 nM. Also, the “Inhibition % at 1000 μM” value in series [5] (1000 μM) is reported as 9.0%.
